One compound from publication PMC6270420, “Antibacterial Activity of Salicylanilide 4-(Trifluoromethyl)benzoates” (Molecules, 2013) can be followed below.

The subject of assay [1] is Mycobacterium tuberculosis 331/88 (H37Rv). Description: Antimycobacterial MIC micromethod, Šula's medium. It counts as cell-based. The following applies: read-out: MIC Mtb. 331/88.
In assay [2] the test system is Mycobacterium avium 330/88. As to the kind of experiment: Antimycobacterial MIC micromethod. It counts as cell-based.
The subject of assay [3] is Mycobacterium kansasii 235/80. As to the kind of experiment: Antimycobacterial MIC micromethod. The following applies: read-out: MIC M. kansasii 235/80. In kind it is cell-based.
In assay [4] the test system is M. kansasii 6509/96 (clinically isolated strain). Description: Antimycobacterial MIC micromethod. The following applies: Mycobacterium kansasii, read-out: MIC M. kansasii 6509/96. In kind it is cell-based.
The subject of the next assay is HepG2 cells. Description: Cytotoxicity evaluation (CellTiter 96 MTS). It counts as cell-based, human. The following applies: Homo sapiens, HepG2; 24 h, cytotoxicity; read-out: IC50 HepG2. In outline: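 Human HepG2 cells (passages 21–24) seeded 1 × 10^4/well, treated next day with 0.01–20 µM compound (4-(trifluoromethyl)benzoic acid 10–4,000 µM), triplicates, 24 h at 37 °C. MTS reduction read at 490 nm after 2 h; IC50 = concentration cutting viability to 50% of control.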

Assay [5] has as its system Mycobacterium tuberculosis, M. avium and M. kansasii. As to the kind of experiment: Antimycobacterial MIC, summary over all mycobacterial strains. The following applies: at 1,000 µmol/L; mycobacteria other than M. kansasii. It counts as cell-based.
Another assay deals with M. kansasii. Description: Antimycobacterial MIC, summary for M. kansasii. The settings on record: Mycobacterium kansasii, both strains; read-out: MICs towards M. kansasii. In kind it is cell-based.
Assay [6] deals with eight Gram-positive and Gram-negative strains. Description: Antibacterial microdilution, summary over eight strains. In kind it is cell-based. The following applies: read-out: MIC, antibacterial action. How it is done:
The in vitro antibacterial activity was assayed against eight Gram-positive and Gram-negative strains: Staphylococcus aureus CCM 4516/08, methicillin-resistant Staphylococcus aureus H 5996/08 (MRSA), Staphylococcus epidermidis H 6966/08, Enterococcus sp. J 14365/08; Escherichia coli CCM 4517, Klebsiella pneumoniae D 11750/08, ESBL-positive Klebsiella pneumoniae J 14368/08, and Pseudomonas aeruginosa CCM 1961.
The microdilution broth method modified according to standard M07-A07 in Mueller-Hinton broth (HiMedia Laboratories, Mumbai, India) adjusted to pH 7.4 (±0.2) was used. The tested compounds were dissolved in DMSO to the final concentrations ranging from […]. Benzylpenicillin (penicillin G) was used as a comparative drug. Bacterial inoculum in sterile water was prepared to match 0.5 McFarland scale ([…]). The minimum inhibitory concentrations were assayed as 90% (IC90) or higher reduction of growth when compared to the control. The determination of results was performed visually and spectrophotometrically (at 540 nm). The values of MICs were determined after 24 and 48 h of incubation in the darkness at 35 °C (±0.1) in a humid atmosphere.

In brackets after ≈: the same amount, converted by molar mass. Read-outs that look alike come from different tables or passages of the source.

Broadly, the IC50 is the point on the concentration scale where inhibition reaches its midpoint. With `O=C(O)c1ccc(C(F)(F)F)cc1` [CF3-BA, 4-(trifluoromethyl)benzoic acid, reference compound], the MIC in assay [1] (336 h, 14 d) is over 1000 µM; in assay [1] (504 h, 21 d), over 1000 µM; in assay [2] (330/88, 336 h, 14 d), over 1000 µM; in assay [2] (330/88, 504 h, 21 d) it was over 1000 µM; in assay [3] (235/80, 168 h, 7 d), 1000 µM (≈ 190 µg/mL); in assay [3] (235/80, 336 h, 14 d), over 1000 µM. Further, the MIC in assay [3] (235/80, 504 h, 21 d) is over 1000 µM; in assay [4] (168 h), 250 µM (≈ 47.5 µg/mL); in assay [4] (336 h, 14 d), 1000 µM (≈ 190 µg/mL); in assay [4] (504 h, 21 d), 1000 µM (≈ 190 µg/mL); in the assay with M. kansasii, at least 250 µM; in assay [6], over 500 µM. In the assay with HepG2 cells, the IC50 came out at 564 µM. The “susceptibility of other mycobacteria” value in assay [5] is on record as “completely insusceptible”.
